Measurements: patent US20110124867A1, “Process and intermediates for the Synthesis of heterocyclic Substituted Piperazines with CXCR3 Antagonist Activity” (Schering Corporation, priority 2007, published 2011)

Tests used:
CXCR3 = molecular target: T1, CXCR3 (Homo sapiens, UniProt P49682); settings: statement in words, refers to the '641 application; cited from earlier work
T1 sequence (P49682 1-368): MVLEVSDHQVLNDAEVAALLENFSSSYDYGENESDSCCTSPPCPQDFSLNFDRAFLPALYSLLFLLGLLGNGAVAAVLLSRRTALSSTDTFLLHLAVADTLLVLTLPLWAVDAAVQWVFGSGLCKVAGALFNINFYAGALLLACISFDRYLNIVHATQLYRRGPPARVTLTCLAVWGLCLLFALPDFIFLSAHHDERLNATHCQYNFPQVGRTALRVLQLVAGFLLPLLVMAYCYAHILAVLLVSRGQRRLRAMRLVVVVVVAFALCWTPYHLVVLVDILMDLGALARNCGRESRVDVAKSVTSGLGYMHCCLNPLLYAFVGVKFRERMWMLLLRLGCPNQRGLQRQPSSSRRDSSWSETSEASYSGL

[1] = aqueous solubility of salt forms (comparison in words, no method given); assay type: physicochemical; settings: methylsulfonate salt compared to other salts

Row | aqueous solubility [1] | Structure (SMILES) | CXCR3 inhibitor activity (CXCR3)
1 |  | CCNc1nnc(-c2cnc(N3C[C@H](CC)N(C4CCN(C(=O)c5ccc(Cl)cc5)CC4)C[C@H]3C)c(C)n2)o1 [Compound A45] | useful CXCR3 inhibitor activity
2 | higher aqueous solubility | CCNc1nnc(-c2cnc(N3C[C@H](CC)N(C4CCN(C(=O)c5ccc(Cl)cc5)CC4)C[C@H]3C)c(C)n2)o1 [Compound II-1] | 
